Experimental findings from patent US7183092B2, “Modified luciferase” (priority 2003, dated 2007) are described below.

What all share (format): biochemical, Photinus pyralis
The nature of data set [1]: Luciferase activity in the presence of nonionic detergent Triton X-100. The following applies: FIG. 4; Triton X-100 up to 5%, 20 ng purified luciferase, 0% ethanol, 33 mM DTT. The procedure: (§1) The stability of CNBLuc03-06 luciferase (SEQ ID NO: 4), both in purified form and in cell lysates, in the presence of a range of potential inhibitors was assayed. The basic assay contained 40 mM Tris-Acetate at pH 7.8, 1 mM MgSO4, 0.1 mM EDTA (ethylenediaminetetraacetic acid), 500 μM D-Luciferin and 500 μM ATP. Ethanol, DTT (dithiothreitol) and potential inhibitors were included at the concentrations stated.
(§2) The stability of CNBLuc03-06 luciferase (SEQ ID NO: 4) in the presence of Triton X-100 and SDS was determined using 20 ng of purified luciferase per sample using the basic assay conditions and in the presence of 0% ethanol and 33 mM DTT. The effect of detergents on wild type luciferase was determined previously by W. J. Simpson and J. R. M. Hammond (W. J. Simpson and J. R. M. Hammond, (1991) Journal of Bioluminescence & Chemiluminescence, 6. 97–106, incorporated herein by reference). They reported the anionic detergents inhibit luciferase activity, and cationic detergents and nonionic detergents increase the reaction rate when the concentration of detergent exceeds critical micelle concentration (CMC) value but only up to certain concentrations.

Data set [2] is described as follows: Luciferase activity in the presence of anionic detergent SDS. The following applies: FIG. 5; 20 ng purified luciferase, 0% ethanol, 33 mM DTT. The method, then:
as §1, §2
SDS was used for testing the effect of anionic detergents.

A short description of data set [3]: Luciferase activity at different pHs. To be noted: up to pH 11. The method, then:
20 ng of enzyme was used for each reaction. The pH was maintained at 7.8 by 40 mM Tris-acetate buffer and 33 mM DTT was added to each reaction. Both substrates, MGATP and D-Luciferin were saturated at 1 mM and 500 μM respectively. The values were normalized against the highest RLU (relative light units) at each pH optimum for comparison purpose. CNBLuc03-06 luciferase (SEQ ID NO: 4) has optimum pH of 9, but the high enough activity is retained at lower pHs in which enables us to use this mutant luciferase in case a wide range of pH is required for the assay (between 8–11).

A short description of data set [4]: Specific activity of luciferase in the absence of DTT. The following applies: 0 mM DTT, pH 7.8, 1 mM ATP, 500 μM D-Luciferin, three replicates. The procedure:
Dithiothreitol (DTT) is an enzyme stabilizing agent used to reduce disulfide bonds (break the bonds) that are not normally formed under physiological conditions. Both purified wild type luciferase and CNBLuc03-06 luciferase (SEQ ID NO: 4) were diluted to 2 μg/ml in 40 mM Tris Acetate buffer at pH 7.8. The assay contained 40 mM Tris-Acetate at pH 7.8, 1 mM MgSO4, 0.1 mM EDTA, 500 μM D-Luciferin, 1 mM ATP, and 0 mM DTT. The light output was measured over time and three replicate measurements were made for each luciferase. The average value of the highest light output reading obtained over time was used to determine specific activity of each enzyme.

Data set [5] can be described thus: Stability of CNBLuc03-02 luciferase activity in the presence of HPV solvents. To be noted: FIG. 2, 33 mM DTT, 10% ethanol; for inhibition of luciferase activity by toluene: 0.5% toluene. The method, then: (§3) The stability of CNBLuc03-02 luciferase (SEQ ID NO: 2) in the presence of a range of potential inhibitors was assayed. The basic assay contained 40 mM Tris-Acetate at pH 7.8, 1 mM MgSO4, 0.1 mM EDTA (ethylenediaminetetraacetic acid), 500 μM D-Luciferin and 500 μM ATP. Ethanol, DTT (dithiothreitol) and potential inhibitors were included at the concentrations stated.
Toluene inhibited CNBLuc03-02 luciferase (SEQ ID NO: 2) activity by approximately 40% and wild type luciferase activity by approximately 80%.

A short description of data set [6]: Stability of CNBLuc03-06 luciferase activity in the presence of HPV chemicals. The following applies: FIG. 3, 1 mM DTT, 2.5% ethanol. The method, then:
as §1
This effect was confirmed by repeated experiments. With 20 ng purified CNBLuc03-06 luciferase (SEQ ID NO: 4) and in the presence of 2.5% ethanol, 1 mM DTT and 86 mM chloroform an activation of approximately 50% was measured, compared with the absence of chloroform.
The capacity of a variety HPV chemicals to inhibit or activate both wild type luciferase and CNBLuc03-06 luciferase (SEQ ID NO: 4) activity compared to controls without HPV chemicals was tested. Higher concentrations of chloroform (172 mM), methylene chloride (318 mM) or toluene (2.7 mM) were used. The basic assay contained 20ng of purified CNBLuc03-06, 1 mM DTT and 2.5% ethanol. CNBLuc03-06 luciferase (SEQ ID NO: 4) was exposed to each chemical for less than 5 minutes before measuring the light output.

Data set [7] can be described thus: Stability of CNBLuc03-02 luciferase activity in the presence of chloroform. The following applies: 5% ethanol, 33 mM DTT, 10 μl cell lysates; for inhibition of luciferase activity by 0.8% CHCl3: 0.8% chloroform; for original activity maintained: FIG. 1, different concentrations of chloroform. The method, then: as §3
A short description of data set [8]: Quantitative in vitro screening of mutant luciferases with chloroform. The following applies: cell lysate supernatant. The procedure:
Selected colonies from secondary screening were inoculated and grown in 5 ml LB broth containing 100 μg/ml ampicillin at 30° C. overnight. When the OD660 reached approximately 1, bacterial cells were harvested from 1.5 ml of culture by centrifugation for 3 min at 12,000 rpm (Eppendorf centrifuge model 5415D). Harvested cells were resuspended in 1 ml of 40 mM Tris-Acetate buffer, pH 7.8, and sonicated for 10 seconds using a Branson Sonifer 450, Duty cycle-40 and output control-4. The activity of each luciferase sample, prepared using 10 μl of supernatant from a subsequent centrifugation of sonicated bacterial cell culture, was tested in 200 μl total reaction volume by a Luminometer (Perkin Elmer, model Victor II). Each assay contained 40 mM Tris-Acetate, 1 mM MgSO4, 0.1 mM EDTA (ethylenediaminetetraacetic acid), 33 mM DTT (dithiothreitol), 500 μM D-Luciferin, 10% Ethanol and 500 μM ATP at pH 7.8. Some screening assays also contained 68.8 mM chloroform (0.8% vol.).
Different mutant luciferases were compared quantitatively by determining the percentage (%) inhibition of luciferase activity in the presence of chloroform relative to a control without chloroform. The specific activities of chloroform-tolerant mutants were generally lower as compared to wild type. […] The nucleotide sequence of CNBLuc03-02 is SEQ ID No: 1. The polypeptide sequence of the product of SEQ ID No: 1 is SEQ ID No: 2.

Entries after “also recorded” stand apart in the source; their conditions may differ. Bounds are passed on as bounds.

For the molecule “wild type luciferase: amino acid sequence of luciferase of the species Photinus pyralis (SEQ ID NO: 6) [reference compound]”, the “effect of Triton X-100 on luciferase activity” value in data set [1] is listed as “activated by the nonionic detergent, Triton X-100, up to final concentration of 1.25%; also recorded: increased until 1.25% then it started decreasing”. In data set [2], the “effect of SDS on luciferase activity” value is listed as “inhibited luciferase activity significantly”. In addition, the “activity at elevated pH” value in data set [3] was “completely inhibit”. Further, the “specific activity (highest light output)” value in data set [4] is 2.9±1.6×10^9 RLU/mg enzyme/sec. Moreover, in data set [5] (10 μl cell lysate), the “inhibition of luciferase activity by toluene” value was “approximately 80%”. Besides, the “inhibition compared to controls, chloroform” value in data set [6] (chloroform 172 mM, exposure less than 5 minutes) is “about 70%”. For the same molecule, the “inhibition compared to controls, methylene chloride” value in data set [6] (methylene chloride 318 mM) is reported as “about 70%”. For the same molecule, the “inhibition compared to controls, toluene” value in data set [6] (toluene 2.7 mM) was “about 20%”. Further, in data set [7], the “inhibition of luciferase activity by 0.8% CHCl3” value is reported as “over 80%” and the original activity maintained entry is given as “about 20%”.

B1: CNBLuc03-02: modified Photinus pyralis luciferase: serine replaced by threonine at amino acid 239 and alanine replaced by threonine at amino acid 532 (protein, listed as Photinus pyralis)
chain: MEDAKNIKKGPAPFYPLEDGTAGEQLHKAMKRYALVPGTIAFTDAHIEVNITYAEYFEMSVRLAEAMKRYGLNTNHRIVVCSENSLQFFMPVLGALFIGVAVAPANDIYNERELLNSMNISQPTVVFVSKKGLQKILNVQKKLPIIQKIIIMDSKTDYQGFQSMYTFVTSHLPPGFNEYDFVPESFDRDKTIALIMNSSGSTGLPKGVALPHRTACVRFSHARDPIFGNQIIPDTAILTVVPFHHGFGMFTTLGYLICGFAVVLMYRFEEELFLRSLQDYKIQSALLVPTLFSFFAKSTLIDKYDLSNLHEIASGGAPLSKEVGEAVAKRFHLPGIRQGYGLTETTSAILITPEGDDKPGAVGKVVPFFEAKVVDLDTGKTLGVNQRGELCVRGPMIMSGYVNNPEATNALIDKDGWLHSGDIAYWDEDEHFFIVDRLKSLIKYKGYQVAPAELESILLQHPNIFDAGVAGLPDDDAGELPAAVVVLEHGKTMTEKEIVDYVASQVTTAKKFRGGVVFVDEVPKGLTGKLDTRKIREILIKAKKGGKSKL
On to B1, for which the “specific activity compared to wild type” value in data set [8] (screening assay) is recorded as “comparable activity”. Also, in data set [8] (screening, 68.8 mM chloroform (0.8% vol.), 10% ethanol, 33 mM DTT), the “inhibition of luciferase activity in the presence of chloroform relative to a control without chloroform” value was “inhibited much less by chloroform”. In addition, in data set [5] (0.5% of CH2Cl2, hexane, xylene or heptane, 10 μl cell lysate), the “inhibition of luciferase activity by HPV solvents other than toluene” value was no more than 15%. Also, the “inhibition by HPV solvents compared with wild type” value in data set [5] (0.5% of each solvent (CH2Cl2, toluene, hexane, xylene, heptane)) is recorded as “not inhibited as much as wild-type luciferase”. In data set [5] (10 μl cell lysate), the “inhibition of luciferase activity by toluene” value is recorded as “approximately 40%”. Further, in data set [7], the “inhibition of luciferase activity by 0.8% CHCl3” value is roughly 30% and the original activity maintained is 80%.
